This series is described as follows: xn = mol fraction of the nth substance listed. As to conditions: 298.15 K; 101 kPa; Liquid; Dispersion; x1 = 0.
Consider `OCCCCCc1ccccc1` [1-pentanol, 5-phenyl-] + O, for which the binary diffusion coefficient amounted to 5.32e-10 m2/s.
The value for `OCCCc1ccccc1` [3-phenyl-1-propanol] + O was 7.22e-10 m2/s; that for `OCCc1ccccc1` [2-phenylethanol] + O was 7.92e-10 m2/s.
The value for `OCCCCc1ccccc1` [4-phenyl-1-butanol] + O was 6.64e-10 m2/s; that for `OCc1ccccc1` [benzenemethanol] + O was 8.3e-10 m2/s.

The values above are taken from the NIST ThermoML archive (doi:10.1021/je900967j).
